Common to all, as to format: physicochemical
The nature of data set [1]: Test Example 4 (3),(4): relative quantum yield based on Rhodamine 6G. The settings on record: pH 7.4 1xPBS. As to the method:
(§1) Based on Rhodamine 6G (TCI), relative quantum yield of Compound 20 and that of the reference fluorescent dye (Alexa Fluor 647 NHS ester) are determined. DMF is added to the two types of fluorescent dyes and Rhodamine 6G to 10 mg/mL to provide stock solutions. Next, pH 7.4 1×PBS is used to dilute the solutions to a concentration of 10 μM and absorption and fluorescence are determined. Herein, 1/2 dilution is carried out from a concentration of 10 μM and then absorption and fluorescence are determined 10 times totally up to the sample of 1/512× concentration. The determined values are introduced to the following Mathematical Formula 1 to analyze the relative quantum yield and the results are shown in the following Table 3 and FIG. 6.
[formula] • Q=Quantum Yield • I=Fluorophore • OD=Absorbance • SubscriptR=Rodamine 6G
as §1, with “18” for “20”, “555” for “647”, “to” for “to the following”, “yield. The” for “yield and the results are shown in the”, “4” for “3”, “7 show the relative quantum yield of each dye.” for “6.”

The nature of data set [2]: Test Example 4 (1),(2): fluorescence intensity of free dye versus reference fluorescent dye. As to the method:
Compound 20 and a reference fluorescent dye (Alexa Fluor 647 NHS ester) are compared with each other in terms of fluorescence intensity. DMF is added to the two types of fluorescent dyes to provide stock solutions and each solution is adjusted to the same concentration of 10 mg/mL. Next, pH 7.4 10 mM phosphate buffered saline (hereinafter, 1×PBS) is used to dilute the solution to a concentration of 19.5 nM and fluorescence is determined under the setting of Excitation 560 nm. The fluorescence determination is carried out by using LS 55 Fluorescence spectrometer (Perkin Elmer).
Compound 18 and a reference fluorescent dye (Alexa Fluor 555 NHS ester) are compared with each other in terms of fluorescence intensity. DMF is added to the two types of fluorescent dyes to provide stock solutions and each solution is adjusted to the same concentration of 10 mg/mL. Next, pH 7.4 10 mM phosphate buffered saline (hereinafter, 1×PBS) is used to dilute the solution to a concentration of 19.5 nM and fluorescence is determined under the setting of Excitation 552 nm. The fluorescence determination is carried out by using LS 55 Fluorescence spectrometer (Perkin Elmer).

Data set [3] is described as follows: Test Example 2: fluorescence intensity as a function of concentration in PBS (plate reader), same absorption intensity. Also on record: increment of fluorescence intensity compared to Compound 19: dose or concentration left out as unconfirmed. The protocol: To determine a change in optical properties when the compound of [Chemical Formula 1] disclosed herein is modified to allow labeling of a biomolecule, an N-succinimidyl group is introduced to each of Compound 9.7 and Compound 10 to obtain Compound 19 and Compound 20, respectively, in the same manner as described hereinabove. Then, fluorescence characteristics are compared at the same absorption wavelength intensity.
Each of Compound 19 and Compound 20 is added to 5 mL of PBS at a concentration of 10 mg/mL at room temperature to provide samples. Next, 1 mL of PBS is added to 2 mL of each sample and the intensity is measured as a function of absorption wavelength. After adjusting the concentration of a sample so that the absorption intensity (Abs at 650 nm) of Compound 19 may be the same as that of Compound 20 from the resultant data, the sample is diluted many times and the fluorescence thereof is determined by using a plate reader (Perkin Elmer).

Data set [4] is described as follows: Test Example 1: absorption and fluorescence intensity with and without the alkylcarboxyaminocyanuric chloride substituent. As to the method: According to [Chemical Formula 1] disclosed herein, compounds to which a substituent including cyanuric chloride bound with an aminoalkylcarboxylic acid is introduced are prepared and optical properties thereof are compared with each other. Glycine is used as an aminoalkylcarboxylic acid to obtain Compound 1 (Example 1.7) disclosed herein, and the optical properties thereof are compared with those of the compound (Example 1.3) including no alkylcarboxyamino cyanuric chloride substituent introduced thereto.
At the same concentration, the compounds of Example 1.7 and Example 1.3 are determined for absorption wavelength and intensity and the results are shown in FIG. 1A. […] To perform accurate comparison of fluorescence wavelength intensity, the concentration of each of the compounds of Example 1.7 and Example 1.3 is corrected so that they may have the same absorption intensity, and then the fluorescence wavelength and intensity of each compound are determined.

As for `CC1(CCCCCC(=O)NCCCNc2nc(Cl)nc(NCCCCCC(=O)ON3C(=O)CCC3=O)n2)C(/C=C/C=C2/N(CCCS(=O)(=O)O)c3ccc(S(=O)(=O)O)cc3C2(C)C)=[N+](CCCS(=O)(=O)O)c2ccc(S(=O)(=O)[O-])cc21` (stereo not drawn) [Compound 18], in data set [1] (552 compound), the “Relative quantum yield (%)” value was determined as 13.34%. Moreover, the “fluorescence intensity versus reference fluorescent dye (Alexa Fluor 555 NHS ester)” value in data set [2] (19.5 nM in 1xPBS pH 7.4, Excitation 552 nm, FIG. 5) is listed as “relatively higher fluorescence intensity”.
Consider “Alexa Fluor 555 NHS ester [reference compound]”, for which, in data set [1] (552 compound), the “Relative quantum yield (%)” value is given as 5.64%.
With `CC1(CCCCCC(=O)NCCCNc2nc(Cl)nc(NCCCCCC(=O)ON3C(=O)CCC3=O)n2)C(/C=C/C=C/C=C2/N(CCCS(=O)(=O)O)c3ccc(S(=O)(=O)O)cc3C2(C)C)=[N+](CCCS(=O)(=O)[O-])c2ccc(S(=O)(=O)O)cc21` (stereo not drawn) [Compound 20], the “Average fluorescence intensity (at 665 nm)” value in data set [3] (3 nM in PBS) came to 313.3; in data set [3] (6 nM in PBS) it was 721.3; in data set [3] (12 nM in PBS), 1454.7; in data set [3] (25 nM in PBS), 2994.3; in data set [3] (49 nM in PBS), 6693.3; in data set [3] (98 nM in PBS), 13859.7. The “Average fluorescence intensity (at 665 nm)” value in data set [3] (196 nM in PBS) is 29396.3; in data set [3] (393 nM in PBS), 59756.7; in data set [3] (785 nM in PBS), 118049.0; in data set [3] (1570 nM in PBS) it was 209850.3; in data set [3] (3140 nM in PBS), 321865.0; in data set [3] (6280 nM in PBS), 418428.3. The “increment of fluorescence intensity compared to Compound 19” value in data set [3] (FIG. 2) is “about 40%”. In addition, in data set [1] (650 compound), the “Relative quantum yield (%)” value turned out to be 11.70%. Further, in data set [2] (19.5 nM in 1xPBS pH 7.4, Excitation 560 nm, FIG. 4), the “fluorescence intensity versus reference fluorescent dye (Alexa Fluor 647 NHS ester)” value is given as “relatively higher fluorescence intensity”.
Consider `CC[N+]1=C(/C=C/C=C2/N(CCCCCC(=O)NNc3nc(Cl)nc(NCC(=O)O)n3)c3ccc(S(=O)(=O)O)cc3C2(C)C)C(C)(C)c2cc(S(=O)(=O)[O-])ccc21` [Compound 1], for which, in data set [4] (concentration corrected to same absorption intensity, FIG. 1B), the “intensity of fluorescence wavelength relative to Example 1.3” value is “approximately two times higher”.
As for `CC1(CCCCCC(=O)ON2C(=O)CCC2=O)C(/C=C/C=C/C=C2/N(CCCS(=O)(=O)O)c3ccc(S(=O)(=O)O)cc3C2(C)C)=[N+](CCCS(=O)(=O)[O-])c2ccc(S(=O)(=O)O)cc21` (stereo not drawn) [Compound 19], the “Average fluorescence intensity (at 665 nm)” value in data set [3] (3 nM in PBS) was determined as 412.0; in data set [3] (6 nM in PBS), 810.7; in data set [3] (12 nM in PBS), 1673.0; in data set [3] (25 nM in PBS), 3336.7; in data set [3] (49 nM in PBS), 6483.7; in data set [3] (98 nM in PBS) it was 12523.0. The “Average fluorescence intensity (at 665 nm)” value in data set [3] (196 nM in PBS) came out at 24679.7; in data set [3] (393 nM in PBS) it was 48611.7; in data set [3] (785 nM in PBS), 91308.7; in data set [3] (1570 nM in PBS) it was 160778.3; in data set [3] (3140 nM in PBS) it was 240494.7; in data set [3] (6280 nM in PBS) it was 308345.7.
As for `CC[N+]1=C(/C=C/C=C2/N(CCCCCC(=O)O)c3ccc(S(=O)(=O)O)cc3C2(C)C)C(C)(C)c2cc(S(=O)(=O)[O-])ccc21` [Example 1.3], in data set [4] (same concentration, Example 1.7 versus Example 1.3, FIG. 1A), the absorption wavelength intensity entry is reported as “slightly higher”.
For the compound “Alexa Fluor 647 NHS ester [reference compound]”, the “Relative quantum yield (%)” value in data set [1] (650 compound) was found to be 7.79%.

The values are drawn from patent US10294204B2, “Fluorescence compounds and preparation method thereof” (BioActs Co., Ltd., priority 2016, dated 2019).
